Assays:
[1] = test system: HMLER CD24− cells; experiment: Cell proliferation and formation of mammospheres; format: cell-based, Human
Text: FIG. 2 is a representative phase contrast photomicrographs of mammospheres formed after 11 days in the absence of any added compound (Control) or in the presence of a defined amount of salinomycine, AM5, AM9 or AM13. […] The size of the mammospheres is correlated with progenitor cell proliferation, whereas the number of mammospheres formed after serial passages at clonal density is correlated with the self-renewal capacity of primitive Cancer Stem Cells. […]
FIG. 9 represents images of the third generation of mammospheres formed from individual HMLER CD24low cells treated during 7 days with the indicated drug. The size of the mammospheres is correlated with progenitor cell proliferation capacity, whereas the number of mammospheres formed after serial passages at clonal density is correlated with the self-renewal capacity of primitive Cancer Stem Cells.
AM5, AM9, AM13 and salinomycine were assessed for their capability to inhibit cell proliferation and formation of mammospheres. […]
AM5 and AM23 and salinomycine were assessed for their capability to inhibit cell proliferation and formation of mammospheres.

[2] = test system: SW480; experiment: Cell death IC50, Annexin V-FITC/PI flow cytometry; format: cell-based; settings: Homo sapiens, SW480, 108 h, read-out: IC50 SW480
Procedure: (§1) The cells were seeded in a 6-well plate at density 5.105 cells/well and cultured overnight. The cells were then treated with various concentration (15, 30, 100, 500, 1000 and 10.000 nM) of salinomycine, AM5 and AM23 for 72 h, 96 h and 108 h. After treatment, cell death was quantified using Annexin V-FITC/Propidium Iodide (PI) assay according to the manufacturer's protocol (FITC Annexin V Apoptosis Detection Kit II, 556570, BD Pharmingen™) and analyzed by a LSRFortessa™ flow cytometer (BD Bioscience, San Jose, Calif.). The data were processed using Cell Quest software (BD Biosciences). Dose-response cell death curves were determined for indicated time.
(§2) For tumor cells, the cells are classified in function of their sensitivity of drugs. Here, the most sensitive cells are incubated for 72 h, the middle sensitive cells for 96 h and the less sensitive or resistant cells are incubated for 108 h with drug at several concentrations.
(§3) Concentrations of 30 nM, 500 nm and 1 μM were used for determining the IC50 of drugs.
(§4) Intervals][…]] mean that IC50 is included in this interval with exclusion of the valor 30 nM.
(§5) The SW620 and SW480 cell lines are from colon tumors.

[3] = test system: SW620; experiment: Cell death IC50, Annexin V-FITC/PI flow cytometry; format: cell-based; settings: Homo sapiens, SW-620, 108 h, read-out: IC50 SW620
Procedure: as §1, §2, §3, §4, §5

[4] = test system: HMLER GFP; experiment: Cell death IC50, Annexin V-FITC/PI flow cytometry; format: cell-based; settings: Homo sapiens; 1rst sensibility (72 h)
Procedure: as §1, §2, §3, §4

[5] = test system: HMLE W2; experiment: Cell death IC50, Annexin V-FITC/PI flow cytometry; format: cell-based; settings: Homo sapiens, read-out: IC50 HMLE W2
Procedure: as §1, §2, §3, §4

[6] = test system: BT20; experiment: Cell death IC50, Annexin V-FITC/PI flow cytometry; format: cell-based; settings: Homo sapiens, BT-20, 108 h, read-out: IC50 BT20
Procedure: as §1, §2, §3, §4

[7] = test system: MDA-MB-231; experiment: Cell death IC50, Annexin V-FITC/PI flow cytometry; format: cell-based; settings: Homo sapiens, MDA-MB-231, 96 h, read-out: IC50 MDA-MB-231
Procedure: as §1, §2, §3, §4

[8] = test system: Zr75.1; experiment: Cell death IC50, Annexin V-FITC/PI flow cytometry; format: cell-based; settings: Homo sapiens, ZR-75-1, 72 h, read-out: IC50 Zr75.1
Procedure: as §1, §2, §3, §4

[9] = test system: HMLER ID2; experiment: Cell death IC50, Annexin V-FITC/PI flow cytometry; format: cell-based; settings: Homo sapiens, 72 h, read-out: IC50 HMLER ID2
Procedure: as §1, §2, §3, §4

[10] = test system: MDA-MB-134; experiment: Cell death IC50, Annexin V-FITC/PI flow cytometry; format: cell-based; settings: Homo sapiens, 96 h, read-out: IC50 MDA-MB-134
Procedure: as §1, §2, §3, §4

[11] = test system: HMLER CD24low; experiment: Cell death IC50, Annexin V-FITC/PI flow cytometry; format: cell-based; settings: Homo sapiens, 72 h, read-out: IC50 HMLER CD24low
Procedure: as §1, §2, §3, §4

[12] = test system: HBL100; experiment: Cell death IC50, Annexin V-FITC/PI flow cytometry; format: cell-based; settings: Homo sapiens, HBL-100, read-out: IC50 HBL100
Procedure: as §1, §2, §3, §4

[13] = test system: HMLER shECAD; experiment: Cell death IC50, Annexin V-FITC/PI flow cytometry; format: cell-based; settings: Homo sapiens, 72 h, read-out: IC50 HMLER shECAD
Procedure: as §1, §2, §3, §4

[14] = test system: BT474; experiment: Cell death IC50, Annexin V-FITC/PI flow cytometry; format: cell-based; settings: Homo sapiens, BT-474, 96 h, read-out: IC50 BT474
Procedure: as §1, §2, §3, §4

[15] = test system: MCF-7; experiment: Cell death IC50, Annexin V-FITC/PI flow cytometry; format: cell-based; settings: Homo sapiens, MCF7, 72 h, read-out: IC50 MCF-7
Procedure: as §1, §2, §3, §4

[16] = test system: T47D; experiment: Cell death IC50, Annexin V-FITC/PI flow cytometry; format: cell-based; settings: Homo sapiens, Resistant (108 h)
Procedure: as §1, §2, §3, §4

[17] = test system: MDA-MB-361; experiment: Cell death IC50, Annexin V-FITC/PI flow cytometry; format: cell-based; settings: Homo sapiens, MDA-MB-361, 96 h, read-out: IC50 MDA-MB-361
Procedure: as §1, §2, §3, §4

[18] = test system: BT549; experiment: Cell death IC50, Annexin V-FITC/PI flow cytometry; format: cell-based; settings: Homo sapiens, BT-549, 108 h, read-out: IC50 BT549
Procedure: as §1, §2, §3, §4

[19] = test system: MDA-MD-157; experiment: Cell death IC50, Annexin V-FITC/PI flow cytometry; format: cell-based; settings: Homo sapiens, 96 h, read-out: IC50 MDA-MD-157
Procedure: as §1, §2, §3, §4

[20] = test system: HMLER CD24+ cells; experiment: Cell viability assay (CellTiter-Blue), IC50 assessment; format: cell-based; settings: Homo sapiens, read-out: IC50 CD24+
Procedure: (§6) FIG. 1 represents viability of HMLER CD24− cells (full line) and HMLER CD24+ cells (dotted line) at different concentration of salinomycine (1A), AM5 […] or AM13 (1D).
(§7) Cell viability assay was carried out by plating 1000 cells per well in 96-well plates. NAC (2 mM, A9165 Sigma) or DFO (1 mM) were pretreated 2 hours prior to the compound treatment. CellTiter-Blue® Reagent (Promega; G3582) (20 μl/well) was added after 24, 48, or 72 hours treatment and cells were incubated for 1 hour before recording fluorescence (560(20)Ex/590(10)Em) using a Perkin Elmer Wallac 1420 Victor2 Microplate Reader.

[21] = test system: MDA-MB-231 cells; experiment: Dead cells by DIOC6(3)/DAPI test with cathepsine B inhibitor; format: cell-based, Human; settings: 500 nM; COA74-Me 30 μM; 48 h, 96 h, 108 h
Procedure: From the treatment, dead cells were assessed by DIOC6(3)/DAPI test and analyzed by flow cytometry.

[22] = test system: HMLER CD24− cells; experiment: Cell viability assay (CellTiter-Blue), IC50 assessment; format: cell-based, Human
Procedure: as §6, §7

[23] = test system: HMLER CD24low cells; experiment: Reactive Oxygen Species (ROS) levels by flow cytometry (CM-H2DCF-DA); format: cell-based, Human; settings: 30 nM, 500 nM or 1 μM, 48 h
Procedure: Reactive Oxygen Species (ROS) levels were measured by flow cytometry or by confocal scanning immunofluorescence microscopy using CM-H2DCF-DA (C6827, invitrogen). Briefly, U2OS and HMLER CD24low cells were treated as indicated in FIG. 11 (30 nM, 500 nM or 1 μM of salinomycine, AM5 or AM23 or untreated during 48 h). Then, these cells were trypsined and incubated with 5 μM CM-H2DCF-DA at 37° C. for 40 min, washed once with PBS and were counterstained with DAPI (0.5 μg/ml) to exclude non-viable cells. The mean fluorescence intensity was determined as ROS production by flow cytometry with LSRFortessa™ cytometer (BD Bioscience, San Jose, Calif.). For immunofluorescence microscopy analysis, cells were seeded on coverslips and were treated with salinomycine derivatives (injection in culture medium then treatment during 24 h, 48 h and 72 h). LysoTracker® Red DND-99 (L-7528, Life technologies) was used to visualize lysosomes. Then, cells were fixed with 4% PFA/PBS. DAPI was used to visualize nuclear DNA. Cell images were obtained using a Deltavision real-time microscope (Applied Precision) or an ApoTome.2 microscope (Zeiss). ImageJ was used for further image processing.
FACS analysis of ROS in cells treated for 48 h is represented in FIG. 17.

[24] = third generation of mammospheres, HMLER CD24low cells treated 7 days

Question: `CCC(C(=O)O)[C@H]1CC[C@H](C)C([C@@H](C)[C@H](O)[C@H](C)C(=O)[C@H](CC)[C@H]2O[C@]3(C=C[C@@H](NC4CC4)[C@]4(CC[C@@](C)([C@H]5CC[C@](O)(CC)[C@H](C)O5)O4)O3)[C@H](C)C[C@@H]2C)O1` (some centres unmarked) [AM23, Sal-cyclopropylamine] was tested. Which “inhibition of cell proliferation, efficacy in comparison with salinomycine” value ([1]; at 30 nM) did it give?
Answer: The value was “ten-fold improved efficacy”.

Question: What about the number of mammospheres [1, 24] of the same molecule?
Answer: The number of mammospheres was “reduced the number of mammospheres”.

Question: What about the size of mammospheres [1, 24] of the same molecule?
Answer: The size of mammospheres was “reduced by the highest dose”.

Question: And the IC50 [2]?
Answer: Its IC50 is 30 to 500 nM.

Question: What about the IC50 [3] of the same molecule?
Answer: Its IC50 is 30 to 500 nM.

Question: What about the IC50 [4] of the same molecule?
Answer: The IC50 was 30 nM.

Question: And the IC50 [5]?
Answer: The IC50 was 1000 nM.

Question: What about the IC50 [6] of the same molecule?
Answer: Its IC50 is 30 to 500 nM.

Question: What about the IC50 [7] of the same molecule?
Answer: The IC50 was greater than 1000 nM.

Question: And the IC50 [8]?
Answer: The IC50 was 30 to 500 nM.

Question: And the IC50 [9]?
Answer: Its IC50 is less than 30 nM.

Question: What about the IC50 [10] of the same molecule?
Answer: Its IC50 is greater than 1000 nM.

Question: What about the IC50 [11] of the same molecule?
Answer: Its IC50 is less than 30 nM.

Question: And the IC50 [12]?
Answer: The IC50 was greater than 1000 nM.

Question: And the IC50 [13]?
Answer: Its IC50 is 30 nM.

Question: And the IC50 [14]?
Answer: The IC50 was greater than 1000 nM.

Question: And the IC50 [15]?
Answer: Its IC50 is 30 to 500 nM.

Question: What about the IC50 [16] of the same molecule?
Answer: Its IC50 is greater than 1000 nM.

Question: What about the IC50 [17] of the same molecule?
Answer: The IC50 was 1000 nM.

Question: What about the IC50 [18] of the same molecule?
Answer: Its IC50 is greater than 1000 nM.

Question: What about the IC50 [19] of the same molecule?
Answer: The IC50 was 30 to 500 nM.

Question: And the IC50 [20]?
Answer: Its IC50 is 1200 nM.

Question: And the “death of MDA-MB-231 cells in combination with cathepsine B inhibition” value [21]?
Answer: The value was “combine themselves to induce the death”.

Question: And the IC50 ([22]; Homo sapiens, read-out: IC50 CD24−)?
Answer: The IC50 was 43 nM.

Question: And the “activity against CD24 cells compared with salinomycine” value ([22]; comparison of the IC50 results)?
Answer: The value was “significantly improved activity”.

Question: What about the ROS induction [23] of the same molecule?
Answer: Its ROS induction is “induces ROS”.
